Data published in ChEMBL document CHEMBL1201862, “PubChem BioAssay data set” (2004).
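Each compound was tested at five concentrations against cells in 96-well plates for 48 hours. Here, GI50 denotes the concentration required for 50% inhibition of growth.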 Activity calls are given as the source filed them. Cut-off read from the data, not from the text of the source: active = GI50 up to about 1.1 µM and inactive = higher.

Assays:
Experiment in all cases: NCI anticancer screen, dose series, 48 h
786-0 = tested on: 786-0
A498 = tested on: A498
A549 = tested on: A549
ACHN = tested on: ACHN
CAKI-1 = tested on: CAKI-1
CCRF-CEM = tested on: CCRF-CEM
COLO 205 = tested on: COLO 205
DLD-1 = tested on: DLD-1
DMS-114 = tested on: DMS-114
DMS-273 = tested on: DMS-273
EKVX = tested on: EKVX
HCC 2998 = tested on: HCC 2998
HCT-116 = tested on: HCT-116
HCT-15 = tested on: HCT-15
HL-60 = tested on: HL-60
HOP-62 = tested on: HOP-62
HT-29 = tested on: HT-29
IGROV-1 = tested on: IGROV-1
K562 = tested on: K562
KM-20L2 = tested on: KM-20L2
KM12 = tested on: KM12
LOX IMVI = tested on: LOX IMVI
LXFL 529 = tested on: LXFL 529
M14 = tested on: M14
M19-MEL = tested on: M19-MEL
MOLT-4 = tested on: MOLT-4
Malme-3M = tested on: Malme-3M
NCI-H226 = tested on: NCI-H226
NCI-H23 = tested on: NCI-H23
NCI-H460 = tested on: NCI-H460
NCI-H522 = tested on: NCI-H522
OVCAR-3 = tested on: OVCAR-3
OVCAR-4 = tested on: OVCAR-4
OVCAR-5 = tested on: OVCAR-5
OVCAR-8 = tested on: OVCAR-8
RPMI-8226 = tested on: RPMI-8226
RXF 631 = tested on: RXF 631
SF-268 = tested on: SF-268
SF-295 = tested on: SF-295
SF-539 = tested on: SF-539
SK-MEL-28 = tested on: SK-MEL-28
SK-MEL-2 = tested on: SK-MEL-2
SK-MEL-5 = tested on: SK-MEL-5
SK-OV-3 = tested on: SK-OV-3
SN12C = tested on: SN12C
SNB-19 = tested on: SNB-19
SNB-75 = tested on: SNB-75
SNB-78 = tested on: SNB-78
SW-620 = tested on: SW-620
TK-10 = tested on: TK-10
U-251 = tested on: U-251
UACC-257 = tested on: UACC-257
UACC-62 = tested on: UACC-62
UO-31 = tested on: UO-31
XF498 = tested on: XF498

COc1ccc(C2CC(=O)c3c(O)cc(O)cc3O2)cc1O (stereo not given)
GI50 (786-0): > 100 µM (inactive)
GI50 (A498): > 100 µM (inactive)
GI50 (A549): > 100 µM (inactive)
GI50 (ACHN): > 100 µM (inactive)
GI50 (CAKI-1): > 100 µM (inactive)
GI50 (CCRF-CEM): > 100 µM (inactive)
GI50 (COLO 205): > 100 µM (inactive)
GI50 (DLD-1): > 100 µM (inactive)
GI50 (DMS-114): > 100 µM (inactive)
GI50 (DMS-273): > 100 µM (inactive)
GI50 (EKVX): > 100 µM (inactive)
GI50 (HCC 2998): > 100 µM (inactive)
GI50 (HCT-116): > 100 µM (inactive)
GI50 (HCT-15): > 100 µM
GI50 (HL-60): > 100 µM (inactive)
GI50 (HOP-62): > 100 µM (inactive)
GI50 (HT-29): > 100 µM (inactive)
GI50 (IGROV-1): > 100 µM (inactive)
GI50 (K562): 28.8 µM (inactive)
GI50 (KM-20L2): > 100 µM (inactive)
GI50 (KM12): > 100 µM (inactive)
GI50 (LOX IMVI): > 100 µM (inactive)
GI50 (LXFL 529): > 100 µM (inactive)
GI50 (M14): > 100 µM (inactive)
GI50 (M19-MEL): > 100 µM (inactive)
GI50 (MOLT-4): > 100 µM (inactive)
GI50 (Malme-3M): > 100 µM (inactive)
GI50 (NCI-H226): > 100 µM (inactive)
GI50 (NCI-H23): > 100 µM (inactive)
GI50 (NCI-H460): > 100 µM (inactive)
GI50 (NCI-H522): > 100 µM (inactive)
GI50 (OVCAR-3): > 100 µM (inactive)
GI50 (OVCAR-4): 65.2 µM (inactive)
GI50 (OVCAR-5): > 100 µM (inactive)
GI50 (OVCAR-8): > 100 µM (inactive)
GI50 (RPMI-8226): 78 µM (inactive)
GI50 (RXF 631): > 100 µM (inactive)
GI50 (SF-268): > 100 µM (inactive)
GI50 (SF-295): > 100 µM (inactive)
GI50 (SF-539): > 100 µM (inactive)
GI50 (SK-MEL-28): > 100 µM (inactive)
GI50 (SK-MEL-2): > 100 µM (inactive)
GI50 (SK-MEL-5): > 100 µM (inactive)
GI50 (SK-OV-3): > 100 µM (inactive)
GI50 (SN12C): > 100 µM (inactive)
GI50 (SNB-19): > 100 µM (inactive)
GI50 (SNB-75): 53.8 µM (inactive)
GI50 (SNB-78): > 100 µM (inactive)
GI50 (SW-620): > 100 µM (inactive)
GI50 (TK-10): > 100 µM (inactive)
GI50 (U-251): > 100 µM (inactive)
GI50 (UACC-257): > 100 µM (inactive)
GI50 (UACC-62): > 100 µM (inactive)
GI50 (UO-31): 58.7 µM (inactive)
GI50 (XF498): > 100 µM (inactive)
